Measured values from US9006174B2 (priority 2009, dated 2015).
Ends that are not written are not given here.

Tested on: hRBCs
Conditions: human erythrocytes, 1 h at 37° C.

Row | Sequence | Toxicity Haemolysis (hRBCs)
1 | RFGRFLRKIRRFRGKVTITIQGSARF [CMAP26 (P14→G)] | − (<25% dead cells)
2 | RFGRFLRKIRRFRLKVTITIQGSARF [CMAP26 (P14→L)] | − (<25% dead cells)
3 | RFGRFLRKIRRLRPK [CMAP(1-15) (F12→L), RFGRFLRKIRRLRPK] | − (<25% dead cells)
4 | RFGRFLRKIRRWRPK [CMAP(1-15) (F12→W), RFGRFLRKIRRWRPK] | −− (<5% dead cells)
